According to US20230346777A1, “USE OF SGC ACTIVATORS FOR THE TREATMENT OF OPHTHALMOLOGIC DISEASES” (Bayer Aktiengesellschaft, priority 2020, published 2023):
Entries after “also recorded” stand apart in the source; their conditions may differ. Structures can show the parent of a compound that is named as a salt.

Assays:
[1] = tested on: retinal ischemia reperfusion (I/R) in rat; test: Sub-chronic changes in rat retinal structure after retinal ischemia reperfusion (I/R), therapeutic and prophylactic settings; assay type: in vivo, male Wistar Unilever rats; conditions: for IPL (inner plexiform layer) thickness: H&E sections
Description: B-8 Evaluation of Sub-Chronic Changes in Rat Retinal Structure after Retinal Ischemia Reperfusion (I/R) Therapeutic and Prophylactic Settings
Six male Wistar Unilever rats were used per experimental group. On induction day, rats were anesthetized with an intraperitoneal injection of Rompun® and Ketavet® before the pupils of the right eyes were dilated with Alcain eye drops and in addition treated with Vigamox® eye drops. The left eye is covered with Bepanthen® eye cream. Under deep anesthesia, the retina and the optic nerve were examined by optical coherence tomography (OCT) as a baseline measurement. The induction was done as the anterior chamber was punctured with a 30 G needle. Through a tube, 0.9% NaCl solution was pumped into the anterior chamber with a pressure 120 mm Hg. The pressure is regulated with a blood pressure cuff. The intraocular pressure (IOP) was elevated for 45 min. The procedure was successful as the eyeballs discolored because of vascular obstruction. After 45 min, the needle was removed, eye cream was put on the right eye and the animal could wake up. Compound (e.g. example 3, formula I-E-R) or its vehicle were orally applied, once daily (QD). The application volume was 5 mL/kg. In prophylactic setting, animals started the treatment 2 days before induction and received an intravenous (IV) bolus of compound (e.g. example 3, formula I-E-R) (i.v. 3 mg/kg in rat plasma) 15 minutes before induction. Treatment continued then after for 21 days. In the therapeutic setting, animals received an intravenous (IV) bolus of compound (e.g. example 3, formula I-E-R) (i.v. 3 mg/kg in rat plasma) 15 minutes after induction. Treatment continued then after for 21 days; once daily (3 mg/kg, PO QD). At day 7 and day 21, the retina and the optic nerve were examined by optical coherence tomography (OCT). The retinal function was evaluated by the ERG (Electroretinography) at day 7 and day 21 post induction according to the method disclosed in McCulloch et al., 2015. Functional read-out of retinal electrical signal in response to light stimulation “b-wave amplitude (μv)” represents inner retinal function. Then the eyes were collected for histopathology and preserved in Davidson's solution. The eye sections were stained with hematoxylin and eosin staining. The total retinal thickness and the inner plexiform layer thickness was measured at 1000 μm distances from the optic nerve using (Microscope Software ZEN, Zeiss, Germany).
Neuroprotection: The inner plexiform layer (IPL) functions as a relay station for the vertical-information-carrying nerve cells, the bipolar cells, to connect the photoreceptor cells to the ganglion cells. The IPL layer thickness was measured in histological sections stained with (H&E).

[2] = tested on: Streptozotocin-induced DR model in rat; test: Streptozotocin-induced DR model in rat (STZ rat model); assay type: in vivo; conditions: STZ diabetic rats, vs vehicle
Description: B-9 Streptozotocin-Induced DR Model in Rat (STZ Rat Model)
135 male 6-week-old male SD rats (200 to 250 g) were randomized to become diabetic or non-diabetic. Following an overnight fast, SD rats were assigned to become diabetic by receiving a single intraperitoneal injection of streptozotocin (55 mg per kg; Sigma-Aldrich, St. Louis, USA) diluted in 0.1M citrate buffer, pH 4.5. Rats were weighed and their blood glucose levels measured (Accu-check Advantage II Blood Glucose Monitor, Roche Diagnostics, USA). Only rats with blood glucose levels greater than 250 mg/dL were considered diabetic (Li et al. 2002). Insulin was administered three times per week to reduce mortality and promote weight gain (2 to 4 units s.c. Humulin NPH, Eli Lilly and Co., Indianapolis, Ind., USA). The pathological events that occur in the early stages of DR were evaluated. Functional read-out of retinal electrical signal in response to light stimulation “b-wave amplitude (μv)” represents inner retinal function. The retinal function ERG (Electroretinography) was tested 2 months after STZ injection according to the method disclosed in McCulloch et al., 2015 and animals were randomized into subgroups with same severity. The animals received treatment after randomization for 2 months and were terminated then after. […]

Q: How did the “retinal structure and photoreceptors integrity (histology)” value ([1]; I/R rats vs IR only) turn out when `CC(C)CN1CCN(c2ccc(-c3ccc(Cl)cc3N3CCC[C@@H](n4ncc(C(=O)O)c4C(F)F)C3)cc2)CC1` [Example 3, 1-{1-[4-Chloro-4′-(4-isobutylpiperazin-1-yl)[biphenyl]-2-yl]piperidin-3-yl}-5-(difluoromethyl)-1H-pyrazole-4-carboxylic acid hydrochloride] was run?
A: The value was “the retinal structure was preserved, and the photoreceptors integrity was intact”.

Q: And the “retinal thickness (histology)” value ([1]; I/R rats, 3 mg/kg PO QD for 21 days plus i.v. 3 mg/kg bolus, at 3 weeks vs IR only)?
A: The value was “significantly higher retinal thickness compared to IR only animals”.

Q: And the “retinal structure / mean total retinal thickness by optical coherence tomography (OCT)” value ([1]; I/R rats, 1- and 3-weeks post induction vs IR only)?
A: The value was “protect retinal structure”.

Q: And the “retinal function measured by ERG (b wave amplitude)” value ([1]; I/R rats, one week and 3 weeks post induction vs IR, hydrochloride)?
A: Its value is “significant difference in retinal function; also recorded: reduces ischemia induced retinal dysfunction”.

Q: And the “IPL (inner plexiform layer) thickness” value ([1]; I/R rats, prophylactic setting (FIG. 4A))?
A: Its value is “preserved”.

Q: What about the “IPL (inner plexiform layer) thickness” value ([1]; I/R rats, therapeutic setting (FIG. 4B)) of the same compound?
A: The value was “preserved”.

Q: And the “b wave amplitude (ERG, retinal function)” value ([2]; 15 mg/kg oral gavage QD for 2 months, started 2 months after STZ, hydrochloride, 15 mg/kg)?
A: Its value is “significant higher b wave amplitude compared to vehicle treated animals; also recorded: reduces diabetic induced retinal dysfunction and diabetic retinopathy progression”.

Q: What about the “diabetic retinopathy disease progression (b wave values)” value ([2]; oral QD, chronic diabetic retinopathy model) of the same compound?
A: The value was “prevented disease progression”.
